Experimental data reported in ChEMBL document CHEMBL3885881, “DrugMatrix”.

Species: Rattus norvegicus
Assay: DrugMatrix - Regimen: Daily Repeat
Assay type: toxicity, organism-based, Sprague-Dawley
Design: regimen Daily Repeat, gender Male, age 6-8 weeks
Conditions: in vivo, po, route oral GAVAGE, […]; for ABSOLUTE BASOPHIL / ABSOLUTE EOSINOPHIL / ABSOLUTE LYMPHOCYTE / ABSOLUTE MONOCYTE / ABSOLUTE SEGMENTED NEUTROPHIL / BASOPHIL / EOSINOPHIL / ERYTHROCYTE COUNT / HEMATOCRIT / HEMOGLOBIN / LEUKOCYTE COUNT / LYMPHOCYTE / MEAN CORPUSCULAR HEMOGLOBIN / MEAN CORPUSCULAR HEMOGLOBIN CONCENTRATION / MEAN CORPUSCULAR VOLUME / MONOCYTE / NEUTROPHIL / NUCLEATED RED BLOOD CELLS / PLATELET COUNT: tissue Blood; for ALANINE AMINOTRANSFERASE / ALBUMIN / ALKALINE PHOSPHATASE / ASPARTATE AMINOTRANSFERASE / BLOOD UREA NITROGEN / CARBON DIOXIDE / CHLORIDE / CHOLESTEROL / CREATINE PHOSPHOKINASE / CREATININE / GLUCOSE / LACTATE DEHYDROGENASE / LIPASE / PHOSPHORUS / POTASSIUM / SODIUM / TOTAL BILIRUBIN / TOTAL PROTEIN / URIC ACID: tissue Plasma
[1] = 25 mg/kg, 72 h, dose level Low, time 3 day
[2] = 25 mg/kg, 120 h, dose level Low, time 5 day
[3] = 250 mg/kg, 72 h, dose level High, time 3 day
[4] = 250 mg/kg, 120 h, dose level High, time 5 day

CC(C)C(Br)C(=O)NC(N)=O (configuration not stated) [BROMISOVALUM]
ABSOLUTE BASOPHIL [1]: 0 CELLS/uL | ABSOLUTE EOSINOPHIL [1]: 72.33 CELLS/uL | ABSOLUTE LYMPHOCYTE [1]: 9251.33 CELLS/uL | ABSOLUTE MONOCYTE [1]: 35.67 CELLS/uL | ABSOLUTE SEGMENTED NEUTROPHIL [1]: 740.67 CELLS/uL | BASOPHIL [1]: 0% | EOSINOPHIL [1]: 0.67% | ERYTHROCYTE COUNT [1]: 5.09 x10E6/uL | HEMATOCRIT [1]: 32.1% | HEMOGLOBIN [1]: 12.97 G/DL | LEUKOCYTE COUNT [1]: 10.1 x10E3/uL | LYMPHOCYTE [1]: 91.67% | MEAN CORPUSCULAR HEMOGLOBIN [1]: 25.47 pg | MEAN CORPUSCULAR HEMOGLOBIN CONCENTRATION [1]: 40.4 G/DL | MEAN CORPUSCULAR VOLUME [1]: 63.03 fL | MONOCYTE [1]: 0.33% | NEUTROPHIL [1]: 7.33% | NUCLEATED RED BLOOD CELLS [1]: 0 /100WBC | PLATELET COUNT [1]: 1168.33 x10E3/uL | ALANINE AMINOTRANSFERASE [1]: 71.33 u/L | ALBUMIN [1]: 4.37 G/DL | ALKALINE PHOSPHATASE [1]: 465.67 u/L | ASPARTATE AMINOTRANSFERASE [1]: 81.33 u/L | BLOOD UREA NITROGEN [1]: 12.67 mg/dL | CARBON DIOXIDE [1]: 33.33 mmol/L | CHLORIDE [1]: 101 MEQ/L | CHOLESTEROL [1]: 83 mg/dL | CREATINE PHOSPHOKINASE [1]: 114.33 u/L | CREATININE [1]: 0.13 mg/dL | GLUCOSE [1]: 140.33 mg/dL | LACTATE DEHYDROGENASE [1]: 109.33 u/L | LIPASE [1]: 12.67 u/L | PHOSPHORUS [1]: 10.3 mg/dL | POTASSIUM [1]: 5.88 MEQ/L | SODIUM [1]: 149.4 MEQ/L | TOTAL BILIRUBIN [1]: 0.23 mg/dL | TOTAL PROTEIN [1]: 5.6 G/DL | URIC ACID [1]: 0.63 mg/dL | ABSOLUTE BASOPHIL [2]: 0 CELLS/uL | ABSOLUTE EOSINOPHIL [2]: 0 CELLS/uL | ABSOLUTE LYMPHOCYTE [2]: 11869 CELLS/uL | ABSOLUTE MONOCYTE [2]: 46.67 CELLS/uL | ABSOLUTE SEGMENTED NEUTROPHIL [2]: 851 CELLS/uL | BASOPHIL [2]: 0% | EOSINOPHIL [2]: 0% | ERYTHROCYTE COUNT [2]: 5.78 x10E6/uL | HEMATOCRIT [2]: 35.77% | HEMOGLOBIN [2]: 14.1 G/DL | LEUKOCYTE COUNT [2]: 12.77 x10E3/uL | LYMPHOCYTE [2]: 93% | MEAN CORPUSCULAR HEMOGLOBIN [2]: 24.37 pg | MEAN CORPUSCULAR HEMOGLOBIN CONCENTRATION [2]: 39.43 G/DL | MEAN CORPUSCULAR VOLUME [2]: 61.83 fL | MONOCYTE [2]: 0.33% | NEUTROPHIL [2]: 6.67% | NUCLEATED RED BLOOD CELLS [2]: 0 /100WBC | PLATELET COUNT [2]: 1234 x10E3/uL | ALANINE AMINOTRANSFERASE [2]: 59.67 u/L | ALBUMIN [2]: 4.33 G/DL | ALKALINE PHOSPHATASE [2]: 401 u/L | ASPARTATE AMINOTRANSFERASE [2]: 86.33 u/L | BLOOD UREA NITROGEN [2]: 12.67 mg/dL | CARBON DIOXIDE [2]: 27 mmol/L | CHLORIDE [2]: 103 MEQ/L | CHOLESTEROL [2]: 65 mg/dL | CREATINE PHOSPHOKINASE [2]: 275 u/L | CREATININE [2]: 0.14 mg/dL | GLUCOSE [2]: 162.67 mg/dL | LACTATE DEHYDROGENASE [2]: 114.33 u/L | LIPASE [2]: 9.67 u/L | PHOSPHORUS [2]: 12.73 mg/dL | POTASSIUM [2]: 6.6 MEQ/L | SODIUM [2]: 147.97 MEQ/L | TOTAL BILIRUBIN [2]: 0.2 mg/dL | TOTAL PROTEIN [2]: 6.17 G/DL | URIC ACID [2]: 1.7 mg/dL | ABSOLUTE BASOPHIL [3]: 0 CELLS/uL | ABSOLUTE EOSINOPHIL [3]: 0 CELLS/uL | ABSOLUTE LYMPHOCYTE [3]: 11820.33 CELLS/uL | ABSOLUTE MONOCYTE [3]: 38.33 CELLS/uL | ABSOLUTE SEGMENTED NEUTROPHIL [3]: 1174.67 CELLS/uL | BASOPHIL [3]: 0% | EOSINOPHIL [3]: 0% | ERYTHROCYTE COUNT [3]: 5.57 x10E6/uL | HEMATOCRIT [3]: 35.87% | HEMOGLOBIN [3]: 14.33 G/DL | LEUKOCYTE COUNT [3]: 13.03 x10E3/uL | LYMPHOCYTE [3]: 91% | MEAN CORPUSCULAR HEMOGLOBIN [3]: 25.8 pg | MEAN CORPUSCULAR HEMOGLOBIN CONCENTRATION [3]: 39.97 G/DL | MEAN CORPUSCULAR VOLUME [3]: 64.47 fL | MONOCYTE [3]: 0.33% | NEUTROPHIL [3]: 8.67% | NUCLEATED RED BLOOD CELLS [3]: 0 /100WBC | PLATELET COUNT [3]: 1177.33 x10E3/uL | ALANINE AMINOTRANSFERASE [3]: 70 u/L | ALBUMIN [3]: 4.17 G/DL | ALKALINE PHOSPHATASE [3]: 407.67 u/L | ASPARTATE AMINOTRANSFERASE [3]: 90.33 u/L | BLOOD UREA NITROGEN [3]: 15 mg/dL | CARBON DIOXIDE [3]: 27.33 mmol/L | CHLORIDE [3]: 103 MEQ/L | CHOLESTEROL [3]: 62.67 mg/dL | CREATINE PHOSPHOKINASE [3]: 210.67 u/L | CREATININE [3]: 0.26 mg/dL | GLUCOSE [3]: 148 mg/dL | LACTATE DEHYDROGENASE [3]: 109.33 u/L | LIPASE [3]: 10.33 u/L | PHOSPHORUS [3]: 11.9 mg/dL | POTASSIUM [3]: 6.86 MEQ/L | SODIUM [3]: 144.53 MEQ/L | TOTAL BILIRUBIN [3]: 0.2 mg/dL | TOTAL PROTEIN [3]: 5.67 G/DL | URIC ACID [3]: 1.67 mg/dL | ABSOLUTE BASOPHIL [4]: 0 CELLS/uL | ABSOLUTE EOSINOPHIL [4]: 46.33 CELLS/uL | ABSOLUTE LYMPHOCYTE [4]: 14344.33 CELLS/uL | ABSOLUTE MONOCYTE [4]: 108 CELLS/uL | ABSOLUTE SEGMENTED NEUTROPHIL [4]: 1434.67 CELLS/uL | BASOPHIL [4]: 0% | EOSINOPHIL [4]: 0.33% | ERYTHROCYTE COUNT [4]: 6.03 x10E6/uL | HEMATOCRIT [4]: 36.47% | HEMOGLOBIN [4]: 14.63 G/DL | LEUKOCYTE COUNT [4]: 15.93 x10E3/uL | LYMPHOCYTE [4]: 89.67% | MEAN CORPUSCULAR HEMOGLOBIN [4]: 24.23 pg | MEAN CORPUSCULAR HEMOGLOBIN CONCENTRATION [4]: 40.13 G/DL | MEAN CORPUSCULAR VOLUME [4]: 60.47 fL | MONOCYTE [4]: 0.67% | NEUTROPHIL [4]: 9.33% | NUCLEATED RED BLOOD CELLS [4]: 0 /100WBC | PLATELET COUNT [4]: 1192.33 x10E3/uL | ALANINE AMINOTRANSFERASE [4]: 64.67 u/L | ALBUMIN [4]: 4.43 G/DL | ALKALINE PHOSPHATASE [4]: 429.33 u/L | ASPARTATE AMINOTRANSFERASE [4]: 83.67 u/L | BLOOD UREA NITROGEN [4]: 13.33 mg/dL | CARBON DIOXIDE [4]: 25.67 mmol/L | CHLORIDE [4]: 104 MEQ/L | CHOLESTEROL [4]: 55 mg/dL | CREATINE PHOSPHOKINASE [4]: 157.67 u/L | CREATININE [4]: 0.2 mg/dL | GLUCOSE [4]: 140.67 mg/dL | LACTATE DEHYDROGENASE [4]: 110.67 u/L | LIPASE [4]: 9.67 u/L | PHOSPHORUS [4]: 9.97 mg/dL | POTASSIUM [4]: 6.56 MEQ/L | SODIUM [4]: 144.1 MEQ/L | TOTAL BILIRUBIN [4]: 0.2 mg/dL | TOTAL PROTEIN [4]: 6.27 G/DL | URIC ACID [4]: 1.53 mg/dL
